Assay results reported in patent US6017880A, “Inhibition of retrovirus infection” (Amgen Inc., priority 1995, dated 2000).

Test system: U937 cells
Assay: Number of SLPI binding sites on PMA-induced U937 cells (Scatchard plot)
Assay type: cell-based, human
Details: PMA 25 ng per ml, 48 hours, versus non-induced cells
Experimental: U937 cells were induced by 13-phorbol-12-myristate acetate ("PMA").
U937 cells at an initial concentration of 10,000 cells per ml were placed in two flasks. PMA was added to one flask at a final concentration of 25 ng per ml. After 48 hours, cells were harvested from both flasks. Using the method of Dripps et al., J. Biol. Chem., Vol. 266, No. 16, pp. 10331-10336 (1991), and labelling with I-125, having a specific activity of 91.5 Curries per millimole, the number of SLPI binding sites was determined. […] In this experiment, the Kd in non-induced cells was 1.1 lnM; The Kd in PMA-induced cells was 1.0 nM. The reduction in the number of SLPI binding sites in the PMA-induced cells is consistent with SLPI binding to elastase and cathepsin G on the cell surface.

In the case of CCCCCCCCCCCCCC(=O)O[C@@H]1[C@@H](C)[C@@]2(O)[C@@H](C=C(CO)C[C@]3(O)C(=O)C(C)=C[C@@H]23)[C@@H]2C(C)(C)[C@]12OC(C)=O [PMA, 13-phorbol-12-myristate acetate], the “Reduction in the number of SLPI binding sites” value was 70%.
